From publication PMC10301333, “The C-Terminus of Panusin, a Lobster β-Defensin, Is Crucial for Optimal Antimicrobial Activity and Serum Stability” (Pharmaceutics, 2023)
In brackets after ≈: the same amount, converted by molar mass. Like-named read-outs stand apart in the source and are kept apart here. Bridge positions count the residues as written; N and C are the ends. Peptide text beside a SMILES is read from it.

Assays:
horse red blood cells = test: Hemolytic activity (hemoglobin release)
Experimental: Both peptides were tested for hemolytic activity on horse red blood cells (RBCs), as described earlier. Briefly, fresh RBCs in PBS (pH 7.4) were first centrifuged 3 × 1500× g for 5 min, then diluted 1:10 with PBS to yield an RBC concentration of ~5 × 10^8 cells/mL. RBCs were then incubated for 1 h at 37 °C with 2-fold serial dilutions of PaD or Ct_PaD covering a 0.24–250 μM concentration range. Next, 0.1% TritonX100 and PBS were used as positive and negative controls, respectively. After incubation, samples were centrifuged at 1500× g for 10 min at room temperature and the supernatant (60 μL) was transferred to a flat-bottomed 96-well polypropylene microplate (Greiner, Frickenhausen, Germany). Hemoglobin release was then measured as OD at 540 nm in a VICTOR3 microplate reader (Perkin Elmer, Waltham, MA, USA). Percent hemolysis was calculated as indicated below (Equation (1)).

MTT cytotoxicity assay = type: cell-based; conditions: human
Experimental: MRC-5 cells were cultured in Eagle’s minimum essential medium (MEMα), supplemented with 10% (v/v) fetal bovine serum (FBS) and a 1% penicillin (100 IU/mL)/streptomycin (100 μg/mL) solution, and maintained at 37 °C in a humidified atmosphere with 5% CO2. After cells were grown, they were seeded into 96-well plates at 3 × 10^4 cells/well and cultured overnight to adhere to the plate. Subsequently, adherent cells were incubated for 4 h under standard conditions (5% CO2, 37 °C) with 2-fold serial dilutions of each peptide in a 1.56–200 μM concentration range. Following incubation, the peptide-containing medium was replaced with MEM supplemented with FBS and 3-(4,5-dimethylthiazol-2-yl)-2,5 diphenyltetrazolium bromide (MTT) at 0.4 mg/mL, and the cells were further incubated for 120 min. Formazan crystals in live cells were detected after disruption with 200 μL of DMSO by OD measurement at 570 nm in a Tecan microplate reader. […] Data are the average of three independent replicates.

[1] = Analytical RP-HPLC retention time as measure of hydrophobic character; type: physicochemical; conditions: chromatographic, Luna C18 4.6 × 50 mm, 3 µm; 10 to 50 linear gradient of MeCN (0.036% TFA) into H2O (0.045% TFA) over 15 min, 1 mL/min, UV 220 nm; used as indicator of hydrophobic character
Experimental: Analytical RP-HPLC was performed on an LC-2010 instrument (Shimadzu, Kyoto, Japan) using a Luna C18 column (4.6 × 50 mm, 3 µm; Phenomenex, Torrance, CA, USA), eluted with linear gradients of solvent B (0.036% TFA in MeCN) into solvent A (0.045% TFA in H2O) over 15 min at a 1 mL/min flow rate, with UV detection at 220 nm.
The HPLC retention times of PaD and Ct_PaD reflect some differences in hydrophobic character. […] Such differences in hydrophobicity might influence both antimicrobial and cytotoxic activity, which were therefore assessed next.
Supplementary Materials: The C-terminus of Panusin, a Lobster β-defensin, Is Crucial for Optimal Antimicrobial
Activity and Serum Stability
Roberto Bello-Madruga, Javier Valle, M. Ángeles Jiménez, Marc Torrent, Vivian Montero-Alejoand David Andreu
1. Synthetic Peptide Characterization
Table S1. Peptide Analytical Data.
1 Theoretical Experimental HPLC Retention Purity
Peptide Mass (Da) Mass (Da)2 Time (min)3 (HPLC, %)4
1 All peptides are C-terminal carboxamides; 2 Determined by LC-MS, 3 Elution was carried out with a 10 to 50 linear gradient over 15 min; 4 Determined by analytical HPLC.
Figure S1. RP-HPLC elution profile of purified peptides. […]

Acinetobacter baumannii = conditions: for MBC: 24 h
Experimental: (§1) Antimicrobial activities of both PaD and Ct_PaD were determined in a modified microdilution assay as described previously for other β-defensins such as peptides. The assay was performed in sterile polypropylene 96-well plates that prevent peptide binding (Greiner, Frickenhausen, Germany). From a bacterial isolate, a single colony was seeded in Mueller Hinton Broth (MHB, Condalab, Torrejón de Ardoz, Spain) and allowed to grow at 37 °C in an incubator with orbital shaking at 250 rpm overnight. Subsequently, a new bacterial culture was seeded from the overnight culture and allowed to grow to an OD of 0.5 at 600 nm. The bacterial suspension was diluted to a final concentration of 5 × 10^5 CFU (colony formation unit)/mL in sterile 10 mM phosphate buffer (PB: 2.46 mM NaH2PO4, 7.5 mM Na2HPO4, pH 7.4), used as the working culture. Next, 50 μL of 2-fold serial dilutions of each peptide in PB were placed on the plates to provide a final 0.097–100 µM concentration range after which 50 μL of working culture was applied to each well. The plate was first incubated for 2 h at 37 °C, then 100 μL of MHB 2× was added to each well and was incubated at 37 °C overnight with shaking. The growth of bacteria was measured by the optical density at 600 nm in a microplate reader (Tecan, Männedorf, Switzerland). The minimum inhibitory concentration (MIC) was defined as the minimum peptide concentration in which the microorganism is unable to grow. The results are the average of three independent studies. […] MBC was defined for each peptide as the lowest concentration with no bacterial growth detected.

Enterococcus faecium = conditions: for MBC: 24 h
Experimental: as §1

Escherichia coli = conditions: for MBC: 24 h
Experimental: as §1

Micrococcus luteus = conditions: for MBC: 24 h
Experimental: as §1

Pseudomonas aeruginosa = conditions: for MBC: 24 h
Experimental: as §1

Staphylococcus aureus = conditions: for MBC: 24 h
Experimental: as §1

human erythrocytes = conditions: natural panusin; cited from earlier work
Source text: Panusin, isolated from hemocytes of the spiny lobster Panulirus argus (PaD), is representative of those invertebrate peptides, which are related to mammalian β-defensins. PaD is comprised of 39 amino acid residues that fold into a well-described cysteine-stabilized αβ (CSαβ) motif, consisting of an α-helix and three antiparallel […]. These […] are strongly stabilized by three disulfide bonds. […] These properties mark it a ...

in vitro = conditions: human, human serum (50% v/v in water), t1/2 values, proteolysis in human serum, 37 °C, 24 h incubation
Experimental: Peptide samples (500 μL, 500 μM in H2O) were mixed and incubated with 500 μL of human serum (Sigma-Aldrich, St. Louis, MO, USA) for 24 h at 37 °C. Aliquots (120 μL) were taken at 0, 30, 120, 360, 720, and 1440 min and treated with 20 μL of trichloroacetic acid (15% (v/v) in H2O). The suspension was centrifuged for 30 min at 13,000 rpm, 4 °C, and the supernatant was analyzed by RP-HPLC as described above. The unaltered peptide was determined by RP-HPLC peak integration, expressed as the percent of the amount at t0, and data were fitted to a one-phase exponential decay model using GraphPad Prism 8.01 to estimate half-life time (t1/2). Results are the average of three independent runs.

CC(C)C[C@@H]1NC(=O)[C@H](CCCNC(=N)N)NC(=O)[C@H](CC(N)=O)NC(=O)CNC(=O)[C@H](Cc2ccc(O)cc2)NC(=O)[C@@H]2CCCN2C(=O)[C@@H](NC(=O)[C@@H](N)Cc2ccc(O)cc2)CSSC[C@@H](C(=O)N[C@@H](CCCNC(=N)N)C(=O)N[C@@H](CCCNC(=N)N)C(=O)N[C@@H](CO)C(=O)N[C@@H](Cc2ccc(O)cc2)C(N)=O)NC(=O)[C@@H]2CSSC[C@H](NC(=O)[C@H](Cc3ccccc3)NC(=O)[C@H](Cc3ccc(O)cc3)NC(=O)[C@H](CC(N)=O)NC1=O)C(=O)N1CCC[C@H]1C(=O)N[C@@H](CC(C)C)C(=O)NCC(=O)N[C@@H](CCCNC(=N)N)C(=O)N[C@@H]([C@@H](C)O)C(=O)N2 [Ct_PaD] (H-YCPYGNRLNYFCPLGRTCCRRSY-NH2; disulfide 2-19, 12-18; N-terminus assumed)
Hemolytic activity (result in words) (horse red blood cells; horse red blood cell lysis, tested up to 250 μM, hemoglobin release at 540 nm): absence of hemolytic activity | IC50 at 4 h (MTT cytotoxicity assay; MRC-5 cells, 4 h peptide incubation, 1.56–200 μM, MTT, OD 570 nm, average of three independent replicates, read-out: MRC-5 cytotoxicity (IC50)): 175 ± 1.5 µM | HPLC Retention Time [1]: 6.65 min

CC[C@H](C)[C@H](NC(=O)[C@H](CCCCN)NC(=O)[C@H](CCC(=O)O)NC(=O)[C@H](CCCCN)NC(=O)[C@H](CO)NC(=O)[C@H](CCCCN)NC(=O)[C@H](CCCNC(=N)N)NC(=O)[C@H](Cc1ccccc1)NC(=O)[C@H](Cc1ccccc1)NC(=O)[C@H](CC(=O)O)NC(=O)CNC(=O)[C@H](CC(C)C)NC(=O)[C@@H](N)CC(C)C)C(=O)NCC(=O)N[C@@H](CCCCN)C(=O)N[C@@H](CCC(=O)O)C(=O)N[C@@H](Cc1ccccc1)C(=O)N[C@@H](CCCCN)C(=O)N[C@@H](CCCNC(=N)N)C(=O)N[C@H](C(=O)N[C@H](C(=O)N[C@@H](CCC(N)=O)C(=O)N[C@@H](CCCNC(=N)N)C(=O)N[C@H](C(=O)N[C@@H](CCCCN)C(=O)N[C@@H](CC(=O)O)C(=O)N[C@@H](Cc1ccccc1)C(=O)N[C@@H](CC(C)C)C(=O)N[C@@H](CCCNC(=N)N)C(=O)N[C@@H](CC(N)=O)C(=O)N[C@@H](CC(C)C)C(=O)N[C@H](C(=O)N1CCC[C@H]1C(=O)N[C@@H](CCCNC(=N)N)C(=O)N[C@H](C(=O)N[C@@H](CCC(=O)O)C(=O)N[C@@H](CO)C(=O)O)[C@@H](C)O)C(C)C)[C@@H](C)CC)C(C)C)[C@@H](C)CC [LL-37, reference compound]
MIC (Acinetobacter baumannii; A. baumannii ATCC 15308, 10 mM phosphate buffer pH 7.4, 2 h at 37 °C, then MHB overnight, OD 600 nm, average of three independent studies): 6.3 µM (≈ 28.3 µg/mL) | MBC (Acinetobacter baumannii; A. baumannii ATCC 15308, plated, 37 °C, lowest concentration with no bacterial growth): 6.3 µM (≈ 28.3 µg/mL) | MIC (Enterococcus faecium; E. faecium ATCC 19434, 10 mM phosphate buffer pH 7.4, 2 h at 37 °C, then MHB overnight, OD 600 nm, average of three independent studies): 1.6 µM (≈ 7.19 µg/mL) | MBC (Enterococcus faecium; E. faecium ATCC 19434, plated, 37 °C, lowest concentration with no bacterial growth): 3.1 µM (≈ 13.9 µg/mL) | MIC (Escherichia coli; E. coli BW25113, 5 × 10^5 CFU/mL in 10 mM phosphate buffer pH 7.4, 2 h at 37 °C, then MHB overnight, OD 600 nm, average of three independent studies): 1.6 µM (≈ 7.19 µg/mL) | MBC (Escherichia coli; E. coli BW25113, 50 μL of wells seeded into Petri plates, 37 °C, lowest concentration with no bacterial growth): 3.1 µM (≈ 13.9 µg/mL) | MIC (Micrococcus luteus; M. luteus ATCC 15,307, 10 mM phosphate buffer pH 7.4, 2 h at 37 °C, then MHB overnight, OD 600 nm, average of three independent studies): 1.6 µM (≈ 7.19 µg/mL) | MBC (Micrococcus luteus; M. luteus ATCC 15,307, plated, 37 °C, lowest concentration with no bacterial growth): 3.1 µM (≈ 13.9 µg/mL) | MIC (Pseudomonas aeruginosa; P. aeruginosa ATCC 15692, 10 mM phosphate buffer pH 7.4, 2 h at 37 °C, then MHB overnight, OD 600 nm, average of three independent studies): 1.6 µM (≈ 7.19 µg/mL) | MBC (Pseudomonas aeruginosa; P. aeruginosa ATCC 15692, plated, 37 °C, lowest concentration with no bacterial growth): 1.6 µM (≈ 7.19 µg/mL) | MIC (Staphylococcus aureus; S. aureus ATCC 12600, 10 mM phosphate buffer pH 7.4, 2 h at 37 °C, then MHB overnight, OD 600 nm, average of three independent studies): 25 µM (≈ 112 µg/mL) | MBC (Staphylococcus aureus; S. aureus ATCC 12600, plated, 37 °C, lowest concentration with no bacterial growth): 25 µM (≈ 112 µg/mL) | Hemolysis % (250 µM peptide) (horse red blood cells; horse RBCs ~5 × 10^8 cells/mL in PBS pH 7.4, 1 h, 37 °C, 250 µM peptide, OD 540 nm, vs 0.1% TritonX100, average of three independent replicates): 17.5 ± 0.3%

CC(C)C[C@@H]1NC(=O)[C@H](CCCNC(=N)N)NC(=O)[C@H](CC(N)=O)NC(=O)CNC(=O)[C@H](Cc2ccc(O)cc2)NC(=O)[C@@H]2CCCN2C(=O)[C@@H]2CSSC[C@@H](C(=O)N[C@@H](CCCNC(=N)N)C(=O)N[C@@H](CCCNC(=N)N)C(=O)N[C@@H](CO)C(=O)N[C@@H](Cc3ccc(O)cc3)C(N)=O)NC(=O)[C@@H]3CSSC[C@H](NC(=O)[C@H](CC(=O)O)NC(=O)CNC(=O)[C@@H](NC(=O)[C@H](Cc4ccc(O)cc4)NC(=O)[C@@H](N)CO)C(C)C)C(=O)NCC(=O)N[C@@H](CO)C(=O)N[C@@H](CC(N)=O)C(=O)NCC(=O)NCC(=O)N[C@@H](CO)C(=O)N[C@@H](CSSC[C@H](NC(=O)[C@H](Cc4ccccc4)NC(=O)[C@H](Cc4ccc(O)cc4)NC(=O)[C@H](CC(N)=O)NC1=O)C(=O)N1CCC[C@H]1C(=O)N[C@@H](CC(C)C)C(=O)NCC(=O)N[C@@H](CCCNC(=N)N)C(=O)N[C@@H]([C@@H](C)O)C(=O)N3)C(=O)N[C@@H](C(C)C)C(=O)N[C@@H](CO)C(=O)N[C@@H](CO)C(=O)N[C@@H](Cc1ccc(O)cc1)C(=O)N2 [PaD] (H-SYVGDCGSNGGSCVSSYCPYGNRLNYFCPLGRTCCRRSY-NH2; disulfide 6-34, 13-28, 18-35)
MIC (Acinetobacter baumannii; 2 h, pH 7.4): 25 µM (≈ 106 µg/mL) | MBC (Acinetobacter baumannii): 25 µM (≈ 106 µg/mL) | MIC (Enterococcus faecium; 2 h, pH 7.4): 25 µM (≈ 106 µg/mL) | MBC (Enterococcus faecium): 25 µM (≈ 106 µg/mL) | MIC (Escherichia coli; 2 h, pH 7.4): 12.5 µM (≈ 53.2 µg/mL) | MBC (Escherichia coli): 12.5 µM (≈ 53.2 µg/mL) | MIC (Micrococcus luteus; 2 h, pH 7.4): 12.5 µM (≈ 53.2 µg/mL) | MBC (Micrococcus luteus): 12.5 µM (≈ 53.2 µg/mL) | MIC (Pseudomonas aeruginosa; 2 h, pH 7.4): 25 µM (≈ 106 µg/mL) | MBC (Pseudomonas aeruginosa): 25 µM (≈ 106 µg/mL) | MIC (Staphylococcus aureus; 2 h, pH 7.4): 25 µM (≈ 106 µg/mL) | MBC (Staphylococcus aureus): 25 µM (≈ 106 µg/mL) | Hemolysis % (250 µM peptide) (horse red blood cells; pH 7.4): 0.6 ± 0.02% | IC50 at 4 h (MTT cytotoxicity assay): 145 ± 1.7 µM | Hemolytic effect on human erythrocytes (human erythrocytes): no hemolytic effect | half-life at 250 µM (in vitro): > 24 h
